Drawing on US11384075B2, “Quinolinone compounds” (Janssen Pharmaceutica NV, priority 2017, dated 2022), this text covers IC50 and GI50 for ten compounds.

Test [1] concerns the target T1, human FGFR3 wild type enzyme (cytoplasmic domain) (Homo sapiens, UniProt P22607).
T1 construct: human FGFR3 wild type enzyme (cytoplasmic domain, from Carna Biosciences); purchased Carna Biosciences
The experiment in a line: FGFR3 wild type mobility shift assay (enzymatic assay). It is filed as biochemical. The note with it: 75 μM ATP, 50 minutes at 30° C., Caliper EZ reader II. Put shortly: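 Cytoplasmic domain of human wild-type FGFR3 (0.04 ng/μL) with 75 μM ATP and 1 μM FL-peptide 30, pH 7.4 HEPES/MgCl2 buffer, 1% DMSO, 50 min at 30 °C, EDTA-stopped. Substrate-product conversion read by mobility shift. IC50, pIC50 and Hill slope from 10-point 4-fold dilutions starting at 10 μM.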

Test [2] deals with T2, human FGFR3 V555M enzyme (cytoplasmic domain carrying V555M mutation) (Homo sapiens, UniProt P22607, V555M).
T2 construct: human FGFR3 V555M enzyme (cytoplasmic domain carrying V555M mutation, from Carna Biosciences); purchased Carna Biosciences
T2 sequence (P22607 397-806 V555M limits assumed): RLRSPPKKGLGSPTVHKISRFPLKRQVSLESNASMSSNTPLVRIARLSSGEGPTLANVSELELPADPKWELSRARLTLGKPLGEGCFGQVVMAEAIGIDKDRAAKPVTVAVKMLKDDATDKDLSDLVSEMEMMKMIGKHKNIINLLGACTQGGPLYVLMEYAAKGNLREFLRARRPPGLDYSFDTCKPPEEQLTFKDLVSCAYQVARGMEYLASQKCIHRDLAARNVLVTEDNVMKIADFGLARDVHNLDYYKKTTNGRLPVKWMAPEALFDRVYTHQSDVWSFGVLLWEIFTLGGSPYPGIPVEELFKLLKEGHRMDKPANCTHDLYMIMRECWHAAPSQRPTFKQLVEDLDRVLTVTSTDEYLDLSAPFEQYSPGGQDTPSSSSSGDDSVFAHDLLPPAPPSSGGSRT
Put plainly: FGFR3 V555M mobility shift assay (enzymatic assay). It is filed as biochemical. To be noted: 30 μM ATP, 45 minutes at 30° C., Caliper EZ reader II. Put shortly: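 Cytoplasmic-domain FGFR3 V555M (0.04 ng/μL) with 30 μM ATP and 1 μM FL-peptide 30 in HEPES pH 7.4/MgCl2/Brij35/DTT, 1% DMSO, 45 min at 30 °C, EDTA-stopped. Mobility-shift read of substrate-product conversion; 10-point 4× dilution from 10 μM fitted for IC50/pIC50.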

Test [3] concerns the target T3, human FGFR3 V555L enzyme (cytoplasmic domain carrying V555L mutation) (Homo sapiens, UniProt P22607, V555L).
T3 construct: human FGFR3 V555L enzyme (cytoplasmic domain carrying V555L mutation, from Carna Biosciences); purchased Carna Biosciences
Put plainly: FGFR3 V555L mobility shift assay (enzymatic assay). It is filed as biochemical. To be noted: 40 μM ATP, 50 minutes at 30° C., Caliper EZ reader II. How it is done: FGFR3 V555L Mobility Shift Assay (Enzymatic Assay)
In a final reaction volume of 25 μL, 0.04 ng/μL human FGFR3 V555L enzyme (cytoplasmic domain carrying V555L mutation, from Carna Biosciences) was incubated with 40 μM ATP, 1 μM FL-peptide 30 substrate and 250 nL of testing compound (1% DMSO final) in assay buffer (100 mM HEPES pH 7.4, 10 mM MgCl2, 0.003% Brij35, 1 mM DTT). After incubation for 50 minutes at 30° C. the reaction was stopped with 10 μL of 0.5M EDTA pH 8.0, and then 25 μL of reaction mixture was transferred to reading plate and measured on Caliper EZ reader II. The substrate-product conversion rate was used as raw data for normalization and concentration-response curve (10 dose points with 4× serial dilution, starting with 10 μM) was plotted using Prism to calculate IC50 (M), pIC50 (−log IC50) and HillSlope value.

The test system of test [4] is NIH/3T3 cells transfected with the same control vector. Put plainly: NIH/3T3 mock cell proliferation assay (counter assay, general toxicity). In kind it is cell-based. To be noted: Mus musculus, NIH3T3, 72 h, 72-hr incubation, CellTiter Glo, starting with 30 μM; counter assay for general toxicity; read-out: NIH/3T3 MOCK CTG (IC50). Put shortly: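 Control-vector NIH/3T3 cells, 30,000/well in DMEM with 10% FBS, exposed 72 h at 37 °C to compound (9 points, 3-fold from 30 μM, 0.3% DMSO). CellTiter-Glo luminescence normalized to survival %; IC50, pIC50 and Hill slope from concentration-response fit.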
In general terms: Cellular ATP, detected with luciferase, serves as a proxy for viable cell number.

Test [5] has as its target T4, NIH/3T3 cells overexpressing FGFR3 WT-TACC3 fusion protein (Homo sapiens, UniProt P22607).
T4 construct: NIH/3T3 FGFR3 WT-TACC3 CTG (IC50); other: 72-hr incubation, CellTiter Glo, starting with 10 μM; fused on or other part: Q9Y6A5 (Transforming acidic coiled-coil-containing protein 3)
Put plainly: NIH/3T3 FGFR3 WT-TACC3 cell proliferation assay. In kind it is cell-based. To be noted: 72-hr incubation, CellTiter Glo, starting with 10 μM; read-out: NIH/3T3 FGFR3 WT-TACC3 CTG (IC50). Put shortly: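 Cells seeded overnight, then exposed 72 h at 37 °C to compound in 9-point 4-fold dilutions from 10 μM (0.1% DMSO final). Viability read by CellTiter-Glo luminescence, normalized to survival %; IC50, pIC50 and Hill slope from concentration-response fit.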

In test [6] the target is T5, NIH/3T3 cells overexpressing FGFR3 V555M-TACC3 fusion protein (Homo sapiens, UniProt P22607, V555M, cells depend on it).
T5 construct: NIH/3T3 FGFR3 V555M-TACC3 CTG (IC50); other: 72-hr incubation, CellTiter Glo, starting with 10 μM; fused on or other part: Q9Y6A5 (Transforming acidic coiled-coil-containing protein 3)
T5 sequence (P22607 whole entry V555M, the tested form may be a part): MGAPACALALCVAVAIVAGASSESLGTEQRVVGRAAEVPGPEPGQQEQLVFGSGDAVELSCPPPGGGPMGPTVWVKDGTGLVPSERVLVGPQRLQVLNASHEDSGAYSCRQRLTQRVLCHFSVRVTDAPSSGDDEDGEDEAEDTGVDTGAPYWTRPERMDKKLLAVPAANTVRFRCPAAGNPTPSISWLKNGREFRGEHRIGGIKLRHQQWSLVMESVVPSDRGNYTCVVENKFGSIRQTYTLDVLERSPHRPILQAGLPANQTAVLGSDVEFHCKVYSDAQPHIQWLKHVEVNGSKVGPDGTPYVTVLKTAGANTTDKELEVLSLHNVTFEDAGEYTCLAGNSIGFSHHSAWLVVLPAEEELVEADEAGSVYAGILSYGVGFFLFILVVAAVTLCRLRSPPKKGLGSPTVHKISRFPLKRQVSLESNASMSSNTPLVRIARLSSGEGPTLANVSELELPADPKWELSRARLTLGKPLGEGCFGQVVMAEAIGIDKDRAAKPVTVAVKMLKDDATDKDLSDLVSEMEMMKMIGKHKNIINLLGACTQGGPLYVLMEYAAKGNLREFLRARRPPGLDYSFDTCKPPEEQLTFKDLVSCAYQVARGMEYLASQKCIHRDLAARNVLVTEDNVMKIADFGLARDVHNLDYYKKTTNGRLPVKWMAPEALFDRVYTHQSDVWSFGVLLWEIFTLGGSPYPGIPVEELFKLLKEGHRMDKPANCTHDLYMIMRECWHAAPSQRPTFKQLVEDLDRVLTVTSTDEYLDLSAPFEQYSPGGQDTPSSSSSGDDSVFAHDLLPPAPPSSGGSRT
The experiment in a line: NIH/3T3 FGFR3 V555M-TACC3 cell proliferation assay. It is filed as cell-based. The note with it: 72-hr incubation, CellTiter Glo, starting with 10 μM; read-out: NIH/3T3 FGFR3 V555M-TACC3 CTG (IC50). Put shortly:
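NIH/3T3 cells overexpressing FGFR3 V555M-TACC3 fusion, 30,000/well in DMEM/10% FBS, treated for 72 h at 37 °C with 9 doses (4× dilutions from 10 μM top, 0.1% DMSO). CellTiter-Glo luminescence normalised to % survival; IC50, pIC50 and Hill slope from concentration-response fits.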

T3 sequence (P22607 397-806 V555L limits assumed): as the sequence (P22607 397-806 V555M limits assumed) above, with M159L counted along it
T4 sequence (P22607 whole entry, change not shown, the tested form may be a part): as the sequence (P22607 whole entry V555M, the tested form may be a part) above, with M555V counted along it
T1 sequence (P22607 397-806 limits assumed): as the sequence (P22607 397-806 V555M limits assumed) above, with M159V counted along it

In the case of `O=c1[nH]c2ccccc2c(NC(c2ncccn2)C2CC2)c1-c1nc2ccc(N3CCOCC3)cc2[nH]1` (single isomer, unassigned) [Compound 33a, (S*)-4-((cyclopropyl(pyrimidin-2-yl)methyl)amino)-3-(6-morpholino-1H-benzo[d]imidazol-2-yl)quinolin-2(1H)-one], the IC50 in test [1] came to 0.595 nM; in test [2], 0.237 nM; in test [3], 0.63 nM; in test [4], 1080 nM. In addition, the GI50 in test [5] came out at 9.24 nM; in test [6], 6.41 nM.

Take `CC(C)N1CCN(c2ccc3nc(-c4c(N[C@@H](C)c5ccccn5)c5ccccc5[nH]c4=O)[nH]c3c2)CC1` [Compound 56, (S)-3-(6-(4-isopropylpiperazin-1-yl)-1H-benzo[d]imidazol-2-yl)-4-((1-(pyridin-2-yl)-ethyl)amino)quinolin-2(1H)-one]: the IC50 turned out to be 0.128 nM in test [1], 0.0676 nM in test [2], 0.135 nM in test [3] and 770 nM in test [4]. In addition, the GI50 in test [6] worked out at 10.7 nM.

Take `CCC(Nc1c(-c2nc3ccc(N4CCOCC4)cc3[nH]2)c(=O)[nH]c2ccccc12)c1ncccn1` (single isomer, unassigned) [Compound 30a, (S*)-3-(6-morpholino-1H-benzo[d]imidazol-2-yl)-4-((1-(pyrimidin-2-yl)propyl)amino)quinolin-2(1H)-one]: the IC50 was 0.281 nM in test [1], 0.177 nM in test [2], 0.617 nM in test [3] and 2910 nM in test [4]. The GI50 in test [5] was found to be 7.19 nM; in test [6], 5.34 nM.

In the case of `CC(C)C(Nc1c(-c2nc3ccc(N4CCOCC4)cc3[nH]2)c(=O)[nH]c2ccccc12)c1ncccn1` (single isomer, unassigned) [Compound 32a, (S*)-4-((2-methyl-1-(pyrimidin-2-yl)propyl)amino)-3-(6-morpholino-1H-benzo[d]imidazol-2-yl)quinolin-2(1H)-one], the IC50 stood at 0.368 nM in test [1], 0.171 nM in test [2], 0.364 nM in test [3] and 2610 nM in test [4]. For the same compound, the GI50 stood at 16.5 nM in test [5] and 5.75 nM in test [6].

Regarding `C[C@H](Nc1c(-c2nc3ccc(OC4CCN(C)CC4)cc3[nH]2)c(=O)[nH]c2ccccc12)c1ccccn1` [Compound 64, (S)-3-(6-((1-Methylpiperidin-4-yl)oxy)-1H-benzo[d]imidazol-2-yl)-4-((1-(pyridin-2-yl)-ethyl)amino)quinolin-2(1H)-one], the IC50 worked out at 0.369 nM in test [1], 0.263 nM in test [2] and 0.504 nM in test [3].

For `C[C@H](Nc1c(-c2nc3ccc(N4CCOCC4)cc3[nH]2)c(=O)[nH]c2ccccc12)c1ccccn1` [Compound 55, (S)-3-(6-Morpholino-1H-benzo[d]imidazol-2-yl)-4-((1-(pyridin-2-yl)ethyl)amino)-quinolin-2(1H)-one], the IC50 turned out to be 1.76 nM in test [1], 0.538 nM in test [2], 1.25 nM in test [3] and 460 nM in test [4]. Further, the GI50 in test [6] is 34.3 nM.

Regarding `C[C@H](Nc1c(-c2nc3ccc(N4CCN(C)CC4)cc3[nH]2)c(=O)[nH]c2cc(F)ccc12)c1ccccn1` [Compound 63, (S)-7-Fluoro-3-(6-(4-methylpiperazin-1-yl)-1H-benzo[d]imidazol-2-yl)-4-((1-(pyridin-2-yl)ethyl)amino)quinolin-2(1H)-one], the IC50 in test [1] was determined as 0.709 nM; in test [2], 1.65 nM; in test [3], 1.39 nM; in test [4], 637 nM. Further, the GI50 in test [6] turned out to be 51.4 nM.

With `C[C@H](Nc1c(-c2nc3ccc(N4CCN(C)CC4)cc3[nH]2)c(=O)[nH]c2ccccc12)c1ccccn1` [Compound 65, (S)-3-(6-(4-methylpiperazin-1-yl)-1H-benzo[d]imidazol-2-yl)-4-((1-(pyridin-2-yl)-ethyl)amino)quinolin-2(1H)-one], the IC50 in test [1] came to 0.377 nM; in test [2] it was 0.193 nM; in test [3] it was 0.246 nM; in test [4] it was 165 nM. The GI50 in test [5] worked out at 5.93 nM; in test [6] it was 8.19 nM.

Take `CC(Nc1c(-c2nc3ccc(C4CCOCC4)cc3[nH]2)c(=O)[nH]c2ccccc12)c1ncccn1` (single isomer, unassigned) [Compound 29a, (S*)-4-((1-(pyrimidin-2-yl)ethyl)amino)-3-(6-(tetrahydro-2H-pyran-4-yl)-1H-benzo[d]-imidazol-2-yl)quinolin-2(1H)-one]: the IC50 worked out at 0.242 nM in test [1], 0.15 nM in test [2] and 4690 nM in test [4]. For the same compound, the figures for the GI50 in test [5] and in test [6] were 8.46 nM and 10.8 nM, respectively.

For `C[C@H](Nc1c(-c2nc3cc(C(F)(F)F)c(N4CCN(C)CC4)cc3[nH]2)c(=O)[nH]c2ccccc12)c1ccccn1` [Compound 14, (S)-3-(6-(4-methylpiperazin-1-yl)-5-(trifluoromethyl)-1H-benzo[d]imidazol-2-yl)-4-((1-(pyridin-2-yl)ethyl)amino)quinolin-2(1H)-one], the IC50 was determined as 3.38 nM in test [1], 2.15 nM in test [2] and 3010 nM in test [4]. For the same compound, the GI50 in test [5] was 52.2 nM; in test [6], 141 nM.
